The subject of test [1] is HIV. In kind it is cell-based. The following applies: for At least 1x log reduction seen in p24 assay?: Table 19b, yes/no.
Test [2] has as its target SARS E protein ion channel (Severe acute respiratory syndrome coronavirus, UniProt P59637). In kind it is biochemical, SARS-CoV.
In test [3] the target is SARS-CoV E protein (Severe acute respiratory syndrome coronavirus, UniProt P59637). It is filed as cell-based.
For test [4], the system named is human coronavirus OC43. Kind of test: microbe, parasite or virus in culture. It is filed as cell-based. The following applies: Betacoronavirus 1, OC43, MRC5, 120 h, MRC-5 cells, 5 days post infection.
Test [5] has as its system porcine respiratory coronavirus (PRCV) strain AR310. Put plainly: PRCV plaque assay in ST cells. In kind it is cell-based. As to conditions: Alphacoronavirus 1; PRCV plaques in ST cells.
Test [6] relates to bovine coronavirus (BCV). Put plainly: BCV plaque assay in MDBK cells. In kind it is cell-based. The following applies: Betacoronavirus 1; BCV plaques in MDBK cells.
In test [7] the test system is EAV (strain Bucyrus). Kind of test: EAV plaque reduction assay in BHK-21 cells. In kind it is cell-based. The following applies: Equine arteritis virus; EAV plaques in BHK-21 cells. On the procedure: To determine the antiviral activity of compounds against EAV replication (strain Bucyrus; ATCC VR-796), an assay measuring reduction in the number of plaques formed in monolayers of EAV infected BHK-21 cells (ATCC CCL-10) was developed: […] Plates were subsequently incubated at 37° C. […] Plaques were counted in all wells and the percentage reduction in plaque number compared to solvent control was calculated. Measurements were performed in duplicate to quadruplicate wells.

Test [8] deals with Vpu protein (Human immunodeficiency virus type 1 group M subtype B, UniProt P05919). The following applies: for Vpu Inhibition (score/# of times tested): halo of growth score between zero and six, XL1-blue E. coli with pPL-Vpu, no adenine, 37° C.
Test [9] has as its system MHV (strain MHV-A59). As to conditions: L929 cells.
Test [10] addresses 229E-CoV E-protein (Human coronavirus 229E, UniProt P19741). Put plainly: Bacterial bio-assay for 229E-CoV E-protein. As to conditions: halo of growth score; E. coli expressing E protein at 37° C.
Test [11] concerns SARS-CoV (Hong Kong strain). It is filed as cell-based, SARS coronavirus. The following applies: for decrease in virus titre: 10 uM; for Titre (% control): 48 hours; for Average TCID50 (×10^6): 48 hours post infection.
For test [12], the system named is Dengue 1 strain Hawaii. Put plainly: Dengue cytoproliferation assay in LLC-MK2 cells (Alamar Blue). The following applies: 7 days. In kind it is cell-based, Dengue virus.
Test [13] deals with 229E E protein ion channel (Human coronavirus 229E, UniProt P19741). Put plainly: 229E E protein ion channel in planar lipid bilayers. The following applies: 100 μM added to the cis chamber; FIG. 10. It is filed as biochemical. On the procedure: The 229E E synthetic peptide was dissolved in 2,2,2-trifluorethanol (TFE) at 0.05 mg/ml to 1 mg/ml. […] Ionic currents, indicating channel activity in the bilayer, were typically detected within 15-30 min. After channels were detected the holding potential across the bilayer was varied between −100 mV and +100 mV to characterise the size and polarity of current flow and enable the reversal potential to be determined.
To test compounds for their ability to block or otherwise inhibit the ion channel formed by 229E E protein, small aliquots of solutions containing the compounds were added to the aqueous solutions bathing planar lipids in which the peptide channel activity had been reconstituted and the effect of the compound addition on the ionic currents was recorded and measured.
Compound stock solutions were typically prepared at 500 mM in DMSO. This solution was further diluted to 50 mM, or lower concentration in 50% DMSO/50% methanol and 2 μl of the appropriately diluted compound was added to the cis and/or trans chambers to yield the desired final concentration.

For test [14], the target named is Dengue virus M protein C-terminal peptide (Dengue virus type 1, UniProt P33478). Kind of test: Dengue virus M protein C-terminal peptide ion channel in lipid bilayers. As to conditions: final concentration of HMA 100 μM in cis chamber. In kind it is biochemical. How it is done:
The dengue virus M protein C-terminal peptide (DMVC) was dissolved in 2,2,2-trifluorethanol (TFE) at 0.05 mg/ml to 1 mg/ml. […] Channel activity was seen within 15-30 min.
Solutions of 50 mM HMA were prepared by first making a 500 mM solution in DMSO. This solution was further diluted to 50 mM HMA using 0.1 M HCl. 2 μl of the 50 mM HMA was added to the cis chamber after channel activity was seen. The cis chamber contained 1 ml of solution making the final concentration of HMA 100 μM.

Where [15] appears, read: Table 19a, rank among 12 compounds, 1 = highest score.

“Also recorded” adds a separate entry of the source. Like-named read-outs stand apart in the source and are kept apart here.

From patent US11192863B2, “Antiviral compounds and methods” (Biotron Limited, priority 2003, dated 2021) come the findings set out here.

On to `N=C(N)NC(=O)/C=C/c1cccc(Br)c1` [(3-Bromocinnamoyl)guanidine], for which the “Percent of Positive Control” value was 116% in test [1] (Drug Conc. 0.625 μM); 59% in test [1] (Drug Conc. 1.25 μM); 9% in test [1] (Drug Conc. 2.5 μM); 1% in [1] (Drug Conc. 5 μM); 3% in test [1] (Drug Conc. 10 μM). In addition, the “At least 1x log reduction seen in p24 assay?” value (from here on “At least 1x log reduction seen”) in test [1] is listed as “yes”. In addition, the “% Reduction of average current by 100 μM” value in [2] amounted to 87 ± 11%. In addition, the “SARS E protein Inhibition (score/# of times tested)” value (“SARS E protein Inhibition” below) in [3] is 3.15/27 score. Further, in [4], testing at 2.5 µM gave an inhibition of 100%. Also, the results for the EC50 in test [5] and in [6] were 11.2 µM and 3 µM, respectively. For the same compound, the half-inhibitory concentration (IC50) in test [7] turned out to be 10 µM. Moreover, the “Bacterial assay rank order” value in test [8] (setting [15]) and in test [8] (Table 19b) was 1 each time. For the same compound, in test [8] (Table 19b), the “Vpu Bacterial score” value is reported as 4.3. In addition, the “Vpu Inhibition (score/# of times tested)” value in test [8] is reported as 4.3/24 score. Besides, the “Percent reduction in Plaque number/# experiments” value (shortened to “Percent reduction”) is given as 39/3% in test [9] (1 uM), 90/3% in test [9] (10 uM) and 95/2% in test [9] (20 uM). Besides, the “229E E protein Inhibition (score)” value in test [10] is 1.7 score.

With `N=C(N)NC(=O)/C=C/c1cccc2ccccc12` [trans-3-(1-napthyl)acryloylguanidine], in test [1], the “At least 1x log reduction seen” value is “yes”. Further, in [2], the “% Reduction of average current by 100 μM” value turned out to be 66 ± 2%. The “SARS E protein Inhibition” value in [3] was 3.38/2 score. Also, the “reduction in virus titre” value in test [11] (2 μM) is “approximately 50%”. Also, the “decrease in virus titre” value in [11] was “approximately 80%”. The “Titre (% control)” value was found to be 46 % control in test [11] (Compound Concentration 2 uM) and 22 % control in test [11] (Compound Concentration 10 uM). Further, the entries for the “Average TCID50 (×10^6)” value in [11] (Compound Concentration 2 uM) and in test [11] (Compound Concentration 10 uM) were 2.45 ×10^6 and 1.15 ×10^6, respectively. Moreover, in test [4], the inhibition at 2.5 µM is 100%. Moreover, the EC50 in test [5] worked out at 19.1 µM; in test [6] it was 13 µM. This compound came in with an IC50 in test [7] of 7.5 µM. Also, the “Antiviral Percent of Negative Control” value in test [12] (Drug Conc. 0.625 μM) amounted to 77.7%; in test [12] (Drug Conc. 1.25 μM) it was 73.7%; in test [12] (Drug Conc. 2.5 μM), 38.7%; in [12] (Drug Conc. 5 μM) it was 12.4%; in test [12] (Drug Conc. 10 μM), 6.8%. The “Bacterial assay rank order” value in test [8] (setting [15]) and in test [8] (Table 19b) was 5.5 each time. For the same compound, the “Vpu Bacterial score” value in [8] (Table 19b) came out at 2.9. For the same compound, in [8], the “Vpu Inhibition (score/# of times tested)” value is 2.9/3 score. Moreover, the “Percent reduction” value in test [9] (1 uM) was 34/3%; in test [9] (10 uM), 86/3%; in test [9] (20 uM) it was 95/2%. The “229E E protein Inhibition (score)” value in [10] was found to be 3.7 score.

Turning to `NC(N)=NC(=O)/C=C/c1ccccc1` [cinnamoylguanidine], in test [1], the “At least 1x log reduction seen” value was “yes”. The “E protein ion channel activity (in words)” value in test [2] is “inhibited; also recorded: significantly reduced”. The “SARS E protein N-terminal peptide channel (in words)” value in [2] is reported as “blocked”. The “channels formed by full-length E protein (in words)” value in [2] is on record as “blocked”. Further, the “reduction of average current across the bilayer” value in [2] is recorded as “about 4 fold”. Also, in test [2] (100 μM), the “average current across the bilayer (in words)” value is on record as “reduced to baseline”. Also, the “SARS E protein Inhibition” value in test [3] is recorded as 0.69/3 score. Moreover, the “decrease in virus titre” value in [11] is on record as “approximately 80%”. For the same compound, the “Titre (% control)” value in test [11] (Compound Concentration 2 uM) is recorded as 82 % control; in [11] (Compound Concentration 10 uM), 24 % control. The “Average TCID50 (×10^6)” value in test [11] (Compound Concentration 2 uM) is recorded as 4.4 ×10^6; in test [11] (Compound Concentration 10 uM), 1.3 ×10^6. The “current flow through the 229E E ion channel (in words)” value in test [13] is given as “greatly reduced current flow”. The compound further gave an inhibition at 2.5 µM in test [4] of 57%. In addition, the figures for the EC50 in [5] and in [6] were 0.08 µM and 42 µM, respectively. The “Antiviral Percent of Negative Control” value in test [12] (Drug Conc. 0.625 μM) was 76.6%; in [12] (Drug Conc. 1.25 μM), 72.6%; in test [12] (Drug Conc. 2.5 μM) it was 58.3%; in test [12] (Drug Conc. 5 μM), 38.6%; in test [12] (Drug Conc. 10 μM) it was 17.1%. Also, the “Bacterial assay rank order” value in test [8] (setting [15]) and in test [8] (Table 19b) was 4 each time. In [8] (Table 19b), the “Vpu Bacterial score” value was found to be 3.0. Moreover, the “Vpu Inhibition (score/# of times tested)” value in test [8] is given as 2.96/12 score. Also, the “Percent reduction” value in test [9] (1 uM) was 52/7%; in test [9] (10 uM) it was 88/8%; in test [9] (20 uM) it was 97/8%. Also, the “229E E protein Inhibition (score)” value in [10] was found to be 1.3 score.

For `NC(N)=NC(=O)c1nc(Cl)c(N2CCCCCC2)nc1N` [5-(N,N-hexamethylene)amiloride], the “Percent of Positive Control” value in test [1] (Drug Conc. 0.625 μM) is 30%; in test [1] (Drug Conc. 1.25 μM) it was 19%; in [1] (Drug Conc. 2.5 μM) it was 50%; in test [1] (Drug Conc. 5 μM), 21%; in test [1] (Drug Conc. 10 μM), 6%. The “At least 1x log reduction seen” value in test [1] was “no”. Besides, in test [2], the “% Reduction of average current by 100 μM” value came out at 91 ± 7%. The “SARS E protein Inhibition” value in test [3] is given as 1.2/3 score. In addition, at 2.5 µM the inhibition in test [4] was 30%. For the same compound, the results for the EC50 in test [5] and in [6] were 0.06 µM and 9 µM, respectively. The compound further returned an IC50 in test [7] of 7.5 µM. Besides, in test [14], the “ion channel activity of the Dengue virus M protein C-terminal peptide (in words)” value is recorded as “Inhibits Ion Channel Activity”. Also, the “bacterial growth around site of drug application (FIG. 5)” value in test [8] (3 μl drop, minimal medium lacking adenine, 37° C. 48 hr) was “halo of bacterial growth”. Moreover, the “Bacterial assay rank order” value in test [8] (setting [15]) and in test [8] (Table 19b) was 10 in each case. In addition, the “Vpu Bacterial score” value in [8] (Table 19b) is 1.9. In addition, the “Vpu Inhibition (score/# of times tested)” value in [8] is 1.9/31 score. Besides, the “Percent reduction” value is recorded as 13/2% in test [9] (1 uM), 89/1% in test [9] (10 uM) and 84/2% in test [9] (20 uM). In [10], the “229E E protein Inhibition (score)” value is given as 1.9 score.

As for `CC(C)(C)c1ccccc1/C=C/C(=O)NC(=N)N` [2-t-butylcinnamoylguanidine], in test [3], the “SARS E protein Inhibition” value is on record as 1.86/1 score. The same compound gave an inhibition at 2.5 µM in test [4] of 4%. Also, the IC50 in [7] was 1 µM. In addition, in [8], the “Vpu Inhibition (score/# of times tested)” value was 2.13/2 score. The “Percent reduction” value is reported as 37/1% in test [9] (1 uM) and 98/2% in test [9] (10 uM). Moreover, in test [10], the “229E E protein Inhibition (score)” value came to 3.9 score.
